Legend:
B. velezensis UMAF6639 [1] = experiment: Lipopeptide analog bacterial toxicity (growth dynamics, OD600); type: cell-based, Bacillus velezensis; details: LB, 28 °C, read every 20 min, triplicate; for toxicity to B. velezensis UMAF6639 (OD600 over 24 h), surfactin variants at the mixture concentration: each analog at 65.83 µM; for toxicity to B. velezensis UMAF6639 (OD600 over 24 h), surfactin variants at the mixture concentration / effect on B. velezensis UMAF6639 growth (OD600 over 24 h), surfactins at physiological concentration: Figure 6K-O; for effect on B. velezensis UMAF6639 growth (OD600 over 24 h), surfactins at physiological concentration: mix 65.83 µM, C12 3.67, C13 16.93, C14 20.49, C15 21.85, C16 4.11 µM; for effect on B. velezensis UMAF6639 growth (OD600 over 24 h), iturin variants at the higher (mixture) concentration: each analog at 7.35 µM; for effect on B. velezensis UMAF6639 growth (OD600 over 24 h), iturin variants at the higher (mixture) concentration / effect on B. velezensis UMAF6639 growth (OD600 over 24 h), iturins at physiological concentration: Figure 6A-E; for effect on B. velezensis UMAF6639 growth (OD600 over 24 h), iturins at physiological concentration: mix 7.35 µM, C13 1.27, C14 2.39, C15 0.76, C16 1.96, C17 0.93 µM
Method: To analyze the toxicity of the lipopeptide variants toward B. velezensis UMAF6639, the wells of 96-well plates with 200 μL of LB medium were inoculated with 5 μL of a bacterial suspension (OD600 = 1), and every analog was added at the desired concentration.
Methanol concentrations used for lipopeptide treatment in each condition ranged from 0.005 to 4.3%, and the maximum was used as a control to confirm that was not harmful for Bacillus growth. OD600 values were measured in a plate reader (FLUOstar Omega reader, BMG LabTech) in kinetic mode with temperature control (28 °C), with measurements taken every 20 min.

B. cinerea = experiment: Antifungal activity assay (fungal growth, OD600); type: cell-based, Botrytis cinerea; details: 24 h, 25 °C
Method: B. cinerea spores were harvested from sporulated plates with distilled water and filtered through a […] pore membrane to avoid mycelial contamination. 96-well plates containing 100 μL of PDB with 100 spores per well were used, and the corresponding analog concentrations were analyzed for antifungal activity. H2O2 (10 mM) was used as a positive control to induce fungal death. For this experiment, methanol concentrations used for lipopeptide treatment ranged from 2 to 6% for iturins, 0.08 to 0.5% for fengycins and 0.2 to 4% for surfactins. The highest methanol concentration used for each condition was added to the control. The plates were incubated for 24 h with agitation (150 rpm) at 25 °C. After incubation, the OD600 values of the inoculated plates were measured in a plate reader (FLUOstar Omega reader, BMG LabTech) to evaluate fungal growth within the treatments.

B. velezensis UMAF6639 [2] = experiment: Bacterial counts (CFU) of treated cultures; type: cell-based, Bacillus velezensis; details: analogue at its physiological concentration, sampled 14 h after treatment; compared with methanol control; Figure 7A
[3] = test system: Fusarium oxysporum f. sp. radicis-lycopersici; details: antagonizing Fusarium oxysporum f. sp. radicis-lycopersici; cited from earlier work
Source text: In another recent study, plipastatins, fengycin analogues produced by B. subtilis, were reported to interact with oil bodies (OBs) of the melon seed endosperm, accelerating lipid mobilization and resulting in plant growth promotion (PGP) and immunization.[12] […] Because fengycin B variants have the same fatty acid length, the amino acid at position 6 of the peptide moiety, which differs between fengycin A and B,[46] is important for t ...

[4] = test system: Melon seeds (Rochet Panal - Fitó); experiment: Promotion of radicle growth evaluation in melon seeds; type: in vivo; details: seeds bathed 1 h, 5 d at 25 °C in the dark; each analog at mixture concentration (7.35 µM); Figure 5A bottom
Method: Melon seeds (Rochet Panal - Fitó) were surface sterilized with 0.1% sodium hypochlorite and washed twice with distilled water. Seed treatment with the purified variants was performed by bathing the seeds for 1 h at room temperature. The analog concentrations were set to the physiological concentrations obtained from previous calibrations. In addition, a second concentration was assayed as if each analog was the only one produced to reach the same concentration as that of the mixture of each lipopeptide family (Table S3). Since each lipopeptide fraction was reconstituted in methanol, water-treated seeds with the highest concentration of methanol used for lipopeptide treatment were used as control. The methanol concentration ranged from 0.004 to 0.025% for iturins, 0.009 to 0.067% for fengycins and 0.018 to 0.050% for surfactins. The seeds were placed in Petri dishes with moist filter paper and maintained in growth chambers at 25 °C for 5 d under dark conditions. The radicle growth-promoting effects were analyzed on the basis of the radicle areas measured 5 days after seed treatment using Fiji software.[28]

## Glu-Leu/Ile-Leu-Val-Asp-Leu-Leu/Ile (lariat or depsi) [C12-surfactin, surfactin analogue with C12 fatty acid, surfactin Fraction A]
B. velezensis UMAF6639 [1]
  toxicity to B. velezensis UMAF6639 (OD600 over 24 h), surfactin variants at the mixture concentration: most toxic
B. cinerea; B. cinerea, PDB, mix 65.83 µM, C12 3.67, C13 16.93, C14 20.49, C15 21.85, C16 4.11 µM (Table S3), Figure 4C left
  antifungal activity (fungal growth, OD600), surfactins at physiological concentration: no significant antifungal activity at physiological concentrations, except for the C12 analog

## Glu-Leu/Ile-Leu-Val-Asp-Leu-Leu/Ile (lariat or depsi) [C13-surfactin, surfactin analogue with C13 fatty acid, surfactin Fraction B]
B. velezensis UMAF6639 [2]
  bacterial counts (CFU) of B. velezensis UMAF6639 cultures: increased bacterial counts
B. velezensis UMAF6639 [1]
  effect on B. velezensis UMAF6639 growth (OD600 over 24 h), surfactins at physiological concentration: considerable increase in the OD values

## Glu-Leu/Ile-Leu-Val-Asp-Leu-Leu/Ile (lariat or depsi) [C15-surfactin, surfactin analogue with C15 fatty acid, surfactin Fractions E, F and G]
B. velezensis UMAF6639 [1]
  effect on B. velezensis UMAF6639 growth (OD600 over 24 h), surfactins at physiological concentration: delayed bacterial growth

## Glu-Leu/Ile-Leu-Val-Asp-Leu-Leu/Ile (lariat or depsi) [C16-surfactin, surfactin analogue with C16 fatty acid, surfactin Fraction H]
B. velezensis UMAF6639 [1]
  toxicity to B. velezensis UMAF6639 (OD600 over 24 h), surfactin variants at the mixture concentration: most toxic
  effect on B. velezensis UMAF6639 growth (OD600 over 24 h), surfactins at physiological concentration: delayed bacterial growth
B. cinerea; each analog at mixture concentration (65.83 µM), B. cinerea, PDB, Figure 4C right
  antifungal activity (fungal growth, OD600), surfactin variants at increased concentration: comparable to that of the positive control

## Glu-Orn-Tyr-Thr-Glu-Ala/Val-Pro-Gln-Thr-Ile (lariat or depsi) [C14-fengycin B, fengycin B variant with C14 fatty acid, fengycin Fraction B]
B. velezensis UMAF6639 [1]; each fraction at 25.60 µM, Figure 6F-J
  effect on B. velezensis UMAF6639 growth (OD600 over 24 h), fengycin fractions at the highest (mixture) concentration: more pronounced
B. velezensis UMAF6639 [1]; mix 25.60 µM, fractions B 3.96, C 5.44, D 2.50, E 11.21, F 2.22 µM, Figure 6F-J
  effect on B. velezensis UMAF6639 growth (OD600 over 24 h), fengycins at physiological (lower) concentration: slightly delayed growth
B. cinerea; each fraction at mixture concentration (25.60 µM), B. cinerea, PDB, Figure 4B right
  antifungal activity (fungal growth, OD600), fengycin variants at the highest concentration tested: weak antifungal activity

## Glu-Orn-Tyr-Thr-Glu-Ala/Val-Pro-Gln-Thr-Ile (lariat or depsi) [fengycin A, fengycin variant with Ala at position 6; literature MIC comparison]
[3]
  minimal inhibitory concentration: notably greater than that of fengycin B

## Ser-Asn-Pro-Gln-Asn-Tyr-Asn (head to tail) [C13-iturin A, iturin A analogue with C13 fatty acid chain, iturin Fraction A, purified from B. velezensis UMAF6639]
[4]
  melon seed radicle growth promotion (radicle area), iturin variants at the same concentration: compromised root development
B. velezensis UMAF6639 [1]
  effect on B. velezensis UMAF6639 growth (OD600 over 24 h), iturin variants at the higher (mixture) concentration: harmless to Bacillus cells
  effect on B. velezensis UMAF6639 growth (OD600 over 24 h), iturins at physiological concentration: harmless to Bacillus cells

## Ser-Asn-Pro-Gln-Asn-Tyr-Asn (head to tail) [C14-iturin A, iturin A analogue with C14 fatty acid chain, iturin Fraction B, purified from B. velezensis UMAF6639]
[4]
  melon seed radicle growth promotion (radicle area), iturin variants at the same concentration: compromised root development
B. velezensis UMAF6639 [1]
  effect on B. velezensis UMAF6639 growth (OD600 over 24 h), iturin variants at the higher (mixture) concentration: bacterial growth was slightly delayed
  effect on B. velezensis UMAF6639 growth (OD600 over 24 h), iturins at physiological concentration: no difference from the control

## Ser-Asn-Pro-Gln-Asn-Tyr-Asn (head to tail) [C15-iturin A, iturin A analogue with C15 fatty acid chain, iturin Fraction C, purified from B. velezensis UMAF6639]
B. velezensis UMAF6639 [2]
  bacterial counts (CFU) of B. velezensis UMAF6639 cultures: increased bacterial counts
[4]
  melon seed radicle growth promotion (radicle area), iturin variants at the same concentration: significantly promoted radicle growth
B. velezensis UMAF6639 [1]
  effect on B. velezensis UMAF6639 growth (OD600 over 24 h), iturin variants at the higher (mixture) concentration: decrease in the optical density, the values remained above those of the untreated control
  effect on B. velezensis UMAF6639 growth (OD600 over 24 h), iturins at physiological concentration: considerable increase in the OD600 value
B. cinerea; B. cinerea 100 spores/well in PDB, 150 rpm, mix 7.35 µM, C13 1.27, C14 2.39, C15 0.76, C16 1.96, C17 0.93 µM (Table S3), Figure 4A left
  antifungal activity (fungal growth, OD600), iturins at physiological concentration: failed to exhibit antifungal activity
B. cinerea; each variant at 7.35 μM, B. cinerea, PDB, Figure 4A right
  antifungal activity (fungal growth, OD600), iturin variants at the concentration of the entire mixture: sole active analog

## Ser-Asn-Pro-Gln-Asn-Tyr-Asn (head to tail) [C16-iturin A, iturin A analogue with C16 fatty acid chain, iturin Fraction D, purified from B. velezensis UMAF6639]
[4]
  melon seed radicle growth promotion (radicle area), iturin variants at the same concentration: significantly promoted radicle growth
B. velezensis UMAF6639 [1]
  effect on B. velezensis UMAF6639 growth (OD600 over 24 h), iturin variants at the higher (mixture) concentration: bacterial growth was slightly delayed
  effect on B. velezensis UMAF6639 growth (OD600 over 24 h), iturins at physiological concentration: no difference from the control

## Ser-Asn-Pro-Gln-Asn-Tyr-Asn (head to tail) [C17-iturin A, iturin A analogue with C17 fatty acid chain, iturin Fraction E, purified from B. velezensis UMAF6639]
[4]
  melon seed radicle growth promotion (radicle area), iturin variants at the same concentration: slightly reduced the root area
B. velezensis UMAF6639 [1]
  effect on B. velezensis UMAF6639 growth (OD600 over 24 h), iturin variants at the higher (mixture) concentration: completely arrested B. velezensis growth

Reference: paper PMC11741111, “Diversification of Lipopeptide Analogues Drives Versatility in Biological Activities” (Journal of Agricultural and Food Chemistry, 2025)
